In PubChem BioAssay AID2060889 (Molecular Pharmacology Branch, DTP, NCI, 2025):

System: LG0567-F671-PDC complex spheroids viability
Assay: Anticancer human tumor LG0567-F671-PDC patient-derived lung adenocarcinoma cell line growth inhibition [RAS]
Settings: for IC50: curve of first compound; for viability, T/C: stronger effect = lower value
How it was run: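 Tumour cells grown as complex spheroids with HUVEC endothelial cells and mesenchymal stem cells, treated with RAS pathway inhibitor combinations. Each agent spans half-log steps from near clinical Cmax, or 10 microM where Cmax is unknown.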

[1] = second compound 0.000949 µM, first compound 0.0316 µM
[2] = second compound 0.000949 µM, first compound 0.1 µM
[3] = second compound 0.000949 µM, first compound 0.316 µM
[4] = second compound 0.000949 µM, first compound 1 µM
[5] = second compound 0.000949 µM, first compound 3.16 µM
[6] = second compound 0.000949 µM, first compound 10 µM
[7] = second compound 0.003 µM, first compound 0.0316 µM
[8] = second compound 0.003 µM, first compound 0.1 µM
[9] = second compound 0.003 µM, first compound 0.316 µM
[10] = second compound 0.003 µM, first compound 1 µM
[11] = second compound 0.003 µM, first compound 3.16 µM
[12] = second compound 0.003 µM, first compound 10 µM
[13] = second compound 0.00949 µM, first compound 0.0316 µM
[14] = second compound 0.00949 µM, first compound 0.1 µM
[15] = second compound 0.00949 µM, first compound 0.316 µM
[16] = second compound 0.00949 µM, first compound 1 µM
[17] = second compound 0.00949 µM, first compound 3.16 µM
[18] = second compound 0.00949 µM, first compound 10 µM
[19] = second compound 0.03 µM, first compound 0.0316 µM
[20] = second compound 0.03 µM, first compound 0.1 µM
[21] = second compound 0.03 µM, first compound 0.316 µM
[22] = second compound 0.03 µM, first compound 1 µM
[23] = second compound 0.03 µM, first compound 3.16 µM
[24] = second compound 0.03 µM, first compound 10 µM
[25] = second compound 0.0949 µM, first compound 0.0316 µM
[26] = second compound 0.0949 µM, first compound 0.1 µM
[27] = second compound 0.0949 µM, first compound 0.316 µM
[28] = second compound 0.0949 µM, first compound 1 µM
[29] = second compound 0.0949 µM, first compound 3.16 µM
[30] = second compound 0.0949 µM, first compound 10 µM
[31] = second compound 0.3 µM, first compound 0.0316 µM
[32] = second compound 0.3 µM, first compound 0.1 µM
[33] = second compound 0.3 µM, first compound 0.316 µM
[34] = second compound 0.3 µM, first compound 1 µM
[35] = second compound 0.3 µM, first compound 3.16 µM
[36] = second compound 0.3 µM, first compound 10 µM
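Also: spheroids exposed to compound for seven days before readout.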
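For IC50 in this document: luminescence signal used as a proxy for viable cells.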

CC1(O)CCCC1n1c(=O)c(C(F)F)cc2cnc(NC3CCN(S(C)(=O)=O)CC3)nc21 (stereo unspecified) + CCn1c(-c2cc(N3CCN(C)CC3)cnc2C(C)OC)c2c3cc(ccc31)-c1csc(n1)CC(NC(=O)C1CC1C)C(=O)N1CCCC(N1)C(=O)OCC(C)(C)C2
IC50 (second compound 0.000949 µM): < 31.6 nM | IC50 (second compound 0.003 µM): < 31.6 nM | IC50 (second compound 0.00949 µM): < 31.6 nM | IC50 (second compound 0.03 µM): < 31.6 nM | IC50 (second compound 0.0949 µM): < 31.6 nM | IC50 (second compound 0.3 µM): < 31.6 nM | viability, T/C [1]: 29.6% | viability, T/C [2]: 27.7% | viability, T/C [3]: 34.2% | viability, T/C [4]: 35.2% | viability, T/C [5]: 36.3% | viability, T/C [6]: 24.7% | viability, T/C [7]: 11.8% | viability, T/C [8]: 15.6% | viability, T/C [9]: 16.7% | viability, T/C [10]: 17.6% | viability, T/C [11]: 18.6% | viability, T/C [12]: 14.1% | viability, T/C [13]: 7.99% | viability, T/C [14]: 8.49% | viability, T/C [15]: 10.3% | viability, T/C [16]: 10.8% | viability, T/C [17]: 11.8% | viability, T/C [18]: 8.83% | viability, T/C [19]: 4.53% | viability, T/C [20]: 5.49% | viability, T/C [21]: 6.91% | viability, T/C [22]: 7.53% | viability, T/C [23]: 8.07% | viability, T/C [24]: 5.96% | viability, T/C [25]: 4.61% | viability, T/C [26]: 4.51% | viability, T/C [27]: 5.52% | viability, T/C [28]: 6.15% | viability, T/C [29]: 6.66% | viability, T/C [30]: 5% | viability, T/C [31]: 3.25% | viability, T/C [32]: 3.76% | viability, T/C [33]: 4.31% | viability, T/C [34]: 5.52% | viability, T/C [35]: 5.43% | viability, T/C [36]: 4.68%

CCC(CC)c1cc(NC2CCC(N)C2)n2nccc2n1 (stereo unspecified) + CCn1c(-c2cc(N3CCN(C)CC3)cnc2C(C)OC)c2c3cc(ccc31)-c1csc(n1)CC(NC(=O)C1CC1C)C(=O)N1CCCC(N1)C(=O)OCC(C)(C)C2
IC50 (second compound 0.000949 µM): < 31.6 nM | IC50 (second compound 0.003 µM): < 31.6 nM | IC50 (second compound 0.00949 µM): < 31.6 nM | IC50 (second compound 0.03 µM): < 31.6 nM | IC50 (second compound 0.0949 µM): < 31.6 nM | IC50 (second compound 0.3 µM): < 31.6 nM | viability, T/C [1]: 23.1% | viability, T/C [2]: 23.2% | viability, T/C [3]: 25.9% | viability, T/C [4]: 22.7% | viability, T/C [5]: 0.34% | viability, T/C [6]: 0.1% | viability, T/C [7]: 10.8% | viability, T/C [8]: 9.27% | viability, T/C [9]: 10.1% | viability, T/C [10]: 9.94% | viability, T/C [11]: 0.21% | viability, T/C [12]: 0.08% | viability, T/C [13]: 6.93% | viability, T/C [14]: 7.19% | viability, T/C [15]: 6.29% | viability, T/C [16]: 4.74% | viability, T/C [17]: 0.26% | viability, T/C [18]: 0.09% | viability, T/C [19]: 4.43% | viability, T/C [20]: 3.65% | viability, T/C [21]: 3.4% | viability, T/C [22]: 2.31% | viability, T/C [23]: 0.18% | viability, T/C [24]: 0.09% | viability, T/C [25]: 2.75% | viability, T/C [26]: 2.83% | viability, T/C [27]: 2.71% | viability, T/C [28]: 1.9% | viability, T/C [29]: 0.21% | viability, T/C [30]: 0.11% | viability, T/C [31]: 2.39% | viability, T/C [32]: 2.56% | viability, T/C [33]: 2.39% | viability, T/C [34]: 1.46% | viability, T/C [35]: 0.22% | viability, T/C [36]: 0.15%

CCN1CCN(Cc2ccc(Nc3ncc(F)c(-c4cc(F)c5nc(C)n(C(C)C)c5c4)n3)nc2)CC1 + CCn1c(-c2cc(N3CCN(C)CC3)cnc2C(C)OC)c2c3cc(ccc31)-c1csc(n1)CC(NC(=O)C1CC1C)C(=O)N1CCCC(N1)C(=O)OCC(C)(C)C2
IC50 (second compound 0.000949 µM): < 3.16 nM | IC50 (second compound 0.003 µM): < 3.16 nM | IC50 (second compound 0.00949 µM): < 3.16 nM | IC50 (second compound 0.03 µM): < 3.16 nM | IC50 (second compound 0.0949 µM): < 3.16 nM | IC50 (second compound 0.3 µM): < 3.16 nM | viability, T/C (second compound 0.000949 µM, first compound 0.00316 µM): 27.4% | viability, T/C (second compound 0.000949 µM, first compound 0.01 µM): 24.3% | viability, T/C [1]: 23.6% | viability, T/C [2]: 23.9% | viability, T/C [3]: 27.4% | viability, T/C [4]: 30.4% | viability, T/C (second compound 0.003 µM, first compound 0.00316 µM): 11.5% | viability, T/C (second compound 0.003 µM, first compound 0.01 µM): 11.9% | viability, T/C [7]: 10.8% | viability, T/C [8]: 11.4% | viability, T/C [9]: 14.7% | viability, T/C [10]: 21.5% | viability, T/C (second compound 0.00949 µM, first compound 0.00316 µM): 6.37% | viability, T/C (second compound 0.00949 µM, first compound 0.01 µM): 6.88% | viability, T/C [13]: 6.24% | viability, T/C [14]: 6.47% | viability, T/C [15]: 7.63% | viability, T/C [16]: 14.4% | viability, T/C (second compound 0.03 µM, first compound 0.00316 µM): 4.36% | viability, T/C (second compound 0.03 µM, first compound 0.01 µM): 4.91% | viability, T/C [19]: 4.15% | viability, T/C [20]: 4.09% | viability, T/C [21]: 5.04% | viability, T/C [22]: 8.84% | viability, T/C (second compound 0.0949 µM, first compound 0.00316 µM): 3.5% | viability, T/C (second compound 0.0949 µM, first compound 0.01 µM): 3.29% | viability, T/C [25]: 2.92% | viability, T/C [26]: 2.88% | viability, T/C [27]: 3.8% | viability, T/C [28]: 6% | viability, T/C (second compound 0.3 µM, first compound 0.00316 µM): 3.07% | viability, T/C (second compound 0.3 µM, first compound 0.01 µM): 2.94% | viability, T/C [31]: 2.53% | viability, T/C [32]: 2.95% | viability, T/C [33]: 3.25% | viability, T/C [34]: 4.38%
